From patent US5637731A (priority 1996, dated 1997)

Columns and labels:
[1] = tested on: peripheral acetylcholine-like effects; assay: Side effect profile: in vivo overt effects (salivation, tremor, diarrhea) after oral administration; parameters: species or system rat; details: (rat) po
Source text: The use of the radioligand binding assays (^3 H-QNB and ^3 H-CD) to characterize the hydroxylated oxotremorine derivatives provides a useful first approximation for,the evaluation of the muscarinic agonist-like profile of a test compound. However, in using a prodrug methodology, intrinsic activity will not be observed until in vivo hydrolysis or metabolism to the active compound occurs. Therefore, radioligand binding data, performed on the carbonyl derivatives, will not provide leading information. As a result, the observed overt effects after oral administration to rats of the test carbonyl derivative, relative to its corresponding hydroxylated oxotremorine compound, became the primary in vivo pharmacological measure. These in vivo overt effects are attributed to the peripheral acetylcholine-like effects of the compound, such as salivation, tremor and diarrhea. The in vivo overt effects also providing dosing information for the behavioral tests of cognitive improvement.

[2] = Stability remark in Table V; assay type: physicochemical; details: in place of the optical rotation
SDAT patients = details: cited from earlier work

Row | Compound | Side Effect Profile minimum effective dose (MED) [1] | also measured
1 | CCCCCC(=O)O[C@H]1CCN(CC#CCN(C)C)C1=O [(S)-Hexanoic acid 1-[4-(dimethylamino)-2-butynyl]-2-oxo-3-pyrrolidinyl ester] | 5.9 μ mol/kg | –
2 | CCCCCC(=O)O[C@H]1CCN(CC#CCN2CCCC2)C1=O [(S)-Hexanoic acid 2-oxo-1-[4-(1-pyrrolidinyl)-2-butynyl]-3-pyrrolidinyl ester] | 1.8 μ mol/kg | –
3 | CCCCCCNC(=O)O[C@H]1CCN(CC#CCN(C)C)C1=O [(S)-Hexylcarbamic acid 1-[4-(dimethylamino)-2-butynyl]-2-oxo-3-pyrrolidinyl ester] | > 510 μ mol/kg | –
4 | CCCCCCNC(=O)O[C@H]1CCN(CC#CCN2CCCC2)C1=O [(S)-Hexylcarbamic acid 2-oxo-1-[4-(1-pyrrolidinyl)-2-butynyl]-3-pyrrolidinyl ester] | > 450 μ mol/kg | –
5 | CCCCCCCC(=O)O[C@H]1CCN(CC#CCN(C)C)C1=O [(S)-Octanoic acid 1-[4-(dimethylamino)-2-butynyl]-2-oxo-3-pyrrolidinyl ester] | 8.0 μ mol/kg | –
6 | CCCCCCCCNC(=O)O[C@H]1CCN(CC#CCN(C)C)C1=O [(S)-Octylcarbamic acid 1-[4-(dimethylamino)-2-butynyl]-2-oxo-3-pyrrolidinyl ester] | > 520 μ mol/kg | –
7 | CCCCCCCCNC(=O)O[C@H]1CCN(CC#CCN2CCCC2)C1=O [(S)-Octylcarbamic acid 2-oxo-1-[4-(1-pyrrolidinyl)-2-butynyl]-3-pyrrolidinyl ester] | > 450 μ mol/kg | –
8 | O=C1[C@@H](O)CCN1CC#CCN1CCC1 [Example 31, (S)-3-Hydroxy-1-[4-(1-azetidinyl)-2-butynyl]-2-pyrrolidinone] | – | stability (in words) [2]: not stable
9 | O=C1[C@H](O)CCN1CC#CCN1CCC1 [Example 33, (R)-3-Hydroxy-1-[4-(1-azetidinyl)-2-butynyl]-2-pyrrolidinone] | – | stability (in words) [2]: not stable
10 | COC(=O)C1=CCCN(C)C1 [arecoline] | – | improvement in SDAT patients compared to physostigmine (SDAT patients): more consistent improvement when compared to the anticholinergic inhibitor physostigmine
